Reference: patent US11198869B2, “Angelman syndrome antisense treatment” (The Texas A&M University System, priority 2017, dated 2021)

What was measured:
SNORD116 = SNORD116 steady state RNA (qRT-PCR) in GABAergic iPSC-derived neurons; format: cell-based, human; conditions: 10-point dose curve 1 nM-30 μM; 14 DIV to 20 DIV
Source text: The effects of ASO-4 and Topotecan were then examined on the SNORD116, IPW, SNORD115, and SNORD109A RNAs, which are located upstream of the ASO-4 target region (see FIG. 1A).
GABAergic and glutamatergic induced pluripotent stem cell (iPSC) derived neural precursor cells (NRC-100-010-001 and GNC-301-030-001, Cellular Dynamics International, Madison Wis.) were differentiated into neurons according to the manufactures protocol. Briefly, neural precursor cells were thawed and resuspended in chemically defined medium and added to sterile-culture plates coated with poly-D-lysine and laminin. The medium was replaced 24 hr after plating and then one-half of the medium was replaced every 3-5 days afterwards.
For cultured iPSC-derived neurons, RNA isolation and cDNA synthesis were performed using the Cell-to-CT kit (Thermo Fisher Scientific) in a lysate volume of 55 μl.
The steady state RNA levels of target transcripts were measured using TaqMan quantitative reverse-transcription PCR (qRT-PCR) assays. […] Cycling conditions were 2 minutes at 50° C., 10 minutes at 95° C., and 40 cycles of 15 seconds at 95° C. and 1 minute at 60° C., with readings taken at the 60° C. step of every cycle. […] Data was retrieved and analyzed with the BIORAD CFX Maestro software (Bio-Rad Laboratories). […]

SNORD109A/B = SNORD109A/B steady state RNA (qRT-PCR) in GABAergic iPSC-derived neurons; conditions: 10-point dose curve 1 nM-30 μM; 14 DIV to 20 DIV
SNURF = assay: RNA-sequencing of Angelman syndrome iPSC neurons: SNURF; format: cell-based, human; conditions: 30 μM; six days post-treatment; RNA-seq
Protocol: (§1) RNA was isolated using Qiagen RNAeasy Plus (74136, Qiagen, Hilden, Germany). RNA concentration was determined using Qubit Fluorometric Quantitation (Thermo Fisher Scientific) and RNA quality was assessed using a 4200 Agilent TapeStation (Agilent, Santa Clara, Calif.). RNA-sequencing libraries were generated using the Illumina TruSeq Stranded Total RNA kit (20020597, Illumina, Inc., San Diego, Calif.) according to the manufacturer's protocol. 75 base-pair paired-end sequencing was performed using a NextSeq 500 (IIlumina, San Diego, Calif.) at the Texas A&M Institute for Genome Sciences and Society Genomics core. Raw sequencing reads were processed using CASAVA. The resulting FASTQ sequences were examined using FASTQC. […]
(§2) To determine whether ASO-4.4.PS.L and ASO-6.1.PO-1.O affect the levels of RNA transcripts encoded by the PWS polycistronic transcript, RNA-sequencing was performed on AS iPS cells treated with each ASO and the steady state RNA levels of SNURF, SNRPN, the SNORD116 host-gene transcript (SNHG116), the SNORD116 snoRNAs, IPW, the SNORD115 host-gene transcript (SNHG115), the SNORD115 snoRNAs, and UBE3A-AS were quantified. UBE3A steady state RNA levels were also measured. […]

[1] = system: SNORD115 host-gene transcript (SNHG115); assay: RNA-sequencing of Angelman syndrome iPSC neurons: SNHG115; format: cell-based, human; conditions: 30 μM, six days post-treatment, RNA-seq
Protocol: as §1, §2

Compound | effect on SNORD116 RNA levels (in words) (SNORD116) | effect on SNORD109A/B RNA levels (in words) (SNORD109A/B) | Difference, SNURF RNA level relative to vehicle (SNURF) | Difference, SNH115G RNA level relative to vehicle [1] | Difference, SNH115G RNA level relative to vehicle ([1]; listed as ASO-6.1.PS-1.O)
CC[C@@]1(O)C(=O)OCc2c1cc1n(c2=O)Cc2cc3c(CN(C)C)c(O)ccc3nc2-1 [Topotecan, reference compound] | significant effect on SNORD116, IPW, SNORD115, and SNORD109A/B RNA levels that was dose dependent | significant effect on SNORD116, IPW, SNORD115, and SNORD109A/B RNA levels that was dose dependent | – | – | –
A^L*G^L*A^L*a*t*g*g*c*a*c*a*t*c*t*5mC^L*T^L*T^L*G^L (NNNATGGCACATCTNNNN; LNA gapmer, PS, 5-methylcytosine, chemistry not fully specified) [ASO-4.4.PS.L] | – | – | 0.49 | – | –
C^O*U^O*G^O*G^O-t*g*t*c*a*a*c*a*a*g-C^O*C^O*A^O*A^o [ASO-6.1.PO-1.O] | – | – | −0.53 | significantly reduced | −0.55
U^O*A^O*G^O*A^O*A^O*t*g*g*c*a*c*a*t*c*t*C^O*U^O*U^O*G^O*G^O [ASO-4] | – | significant effect on the RNA levels of IPW, SNORD115, and SNORD109A/B but not in a dose dependent manner | – | – | –
